The values below come from patent publication US20260159512A1, “BCAT2 INHIBITORS” (AGIOS PHARMACEUTICALS, INC., priority 2021, published 2026).

Common to all, as to conditions: average where tested multiple times
Assay [1] has as its target T1, BCAT2 (Homo sapiens, UniProt O15382).
T1 sequence (O15382 28-392): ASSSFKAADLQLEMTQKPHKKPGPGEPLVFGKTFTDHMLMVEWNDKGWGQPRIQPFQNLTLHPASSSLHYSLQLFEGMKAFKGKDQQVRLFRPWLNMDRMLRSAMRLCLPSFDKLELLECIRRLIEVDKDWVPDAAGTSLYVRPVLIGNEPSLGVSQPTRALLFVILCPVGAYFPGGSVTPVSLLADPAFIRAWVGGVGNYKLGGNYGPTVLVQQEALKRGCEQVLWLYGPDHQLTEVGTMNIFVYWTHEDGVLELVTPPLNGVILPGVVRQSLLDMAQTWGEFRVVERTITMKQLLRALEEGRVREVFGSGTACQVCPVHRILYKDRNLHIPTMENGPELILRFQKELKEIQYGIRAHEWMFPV
Kind of assay: BCAT2 in vitro enzyme inhibition assay (resazurin/diaphorase-coupled fluorescence). The class given is biochemical. A digest of the protocol: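 Coupled fluorescence readout: glutamate formed from L-leucine/α-ketoglutarate transamination drives GDH/NAD/diaphorase reduction of resazurin (Ex 540/Em 590). Human BCAT2 was first exposed 1 h at room temperature to compound, top final 100 μM in 3-fold, 10-point series; substrate reaction ran 1 h before SDS quench, in technical duplicate with DMSO max and enzyme-free min controls.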

Another assay concerns the target T2, hBCAT1 (Homo sapiens, UniProt P54687).
T2 sequence (P54687 1-386): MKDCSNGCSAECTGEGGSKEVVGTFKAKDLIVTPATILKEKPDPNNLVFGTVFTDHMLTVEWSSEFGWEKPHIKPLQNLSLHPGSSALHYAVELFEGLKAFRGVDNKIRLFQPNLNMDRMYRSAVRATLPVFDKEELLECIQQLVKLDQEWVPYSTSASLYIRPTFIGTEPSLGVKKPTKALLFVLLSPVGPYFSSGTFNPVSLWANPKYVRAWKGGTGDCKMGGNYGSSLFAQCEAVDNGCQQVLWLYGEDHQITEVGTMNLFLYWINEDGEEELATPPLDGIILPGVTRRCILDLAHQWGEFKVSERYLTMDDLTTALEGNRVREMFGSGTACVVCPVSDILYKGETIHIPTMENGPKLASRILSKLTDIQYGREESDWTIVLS
Put plainly: BCAT1 in vitro enzyme inhibition assay (resazurin/diaphorase-coupled fluorescence). The format is biochemical. The procedure, abridged:
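Ten-point, 3-fold compound series (top final 100 μM, delivered 1:50 from 50× DMSO stocks) tested against hBCAT1. Inhibition detected via diaphorase-coupled resazurin fluorescence, duplicate wells, with values from repeated runs averaged.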
(In general: Resazurin is reduced to fluorescent resorufin, in cell work by metabolically active cells.)

In assay [2] the target is T1, BCAT2. Kind of assay: BCAT2 in vitro cell inhibition using engineered A549 cells (KMV cell assay, 13C6-KMV by LC-MS/MS). The format is cell-based. Set-up: The result was an engineered A549 cell line that expressed endogenous BCAT2; endogenous in cells; host or cells: A549 cells with MUT and BCAT1 knocked out by CRISPR/CAS9; key to BCAT2 Cell Inhibition: A: less than or equal to 0.100 μM; B: greater than 0.100 and less than or equal to 0.500 μM; C: greater than 0.500 and less than or equal to 1.000 μM; d: greater than 1.000 μM; E: no fit.

By IC50 is commonly meant the concentration at which inhibition is half-maximal. Regarding `O=C(N[C@@H]1C[C@H](n2c(-c3ccccc3F)nc3cnc(-c4nc[nH]n4)cc32)CS(=O)(=O)C1)c1ccc(Cl)s1` [Example 456, 5-chloro-N-((3R,5S)-5-(2-(2-fluorophenyl)-6-(1H-1,2,4-triazol-3-yl)-1H-imidazo[4,5-c]pyridin-1-yl)-1,1-dioxidotetrahydro-2H-thiopyran-3-yl)thiophene-2-carboxamide], the concentration for half-maximal inhibition (IC50) against BCAT2 [1] was at most 100 nM; at hBCAT1 it was under 500 nM; on BCAT2 [2], over 1000 nM.

With `CC(C)Cc1nc2cnc(-c3nccs3)cc2n1[C@@H]1CCC[C@H](NC(=O)c2ncc(Cl)s2)C1` [Example 163, 5-chloro-N-((1S,3R)-3-(2-isobutyl-6-(thiazol-2-yl)-1H-imidazo[4,5-c]pyridin-1-yl)cyclohexyl)thiazole-2-carboxamide], the values for the IC50 at BCAT2 [1], against hBCAT1 and on BCAT2 [2] were at most 100 nM, under 500 nM and at most 100 nM, respectively.

With `O=C(N[C@H]1CCC[C@@H](n2c(C3CCCCO3)nc3cnc(-c4nc[nH]n4)cc32)C1)c1ncc(Cl)s1` (single isomer, unassigned) [Example 89], the IC50 is at most 100 nM at BCAT2 [1], 500 to 1000 nM against hBCAT1 and 100 to 500 nM at BCAT2 [2].

Take `CC(=O)N1CC(NC(=O)c2ccc(Br)s2)CC(n2c(-c3ccccc3F)nc3cnc(-c4ncco4)cc32)C1` (stereo not drawn) [Example 118, N-(1-acetyl-5-(2-(2-fluorophenyl)-6-(oxazol-2-yl)-1H-imidazo[4,5-c]pyridin-1-yl)piperidin-3-yl)-5-bromothiophene-2-carboxamide]: the IC50 on BCAT2 [1] is at most 100 nM; against hBCAT1, under 500 nM; at BCAT2 [2], at most 100 nM.

`O=C(N[C@H]1CCC[C@@H](n2c(CC3CC3)nc3cnc(-c4nc[nH]n4)cc32)C1)c1ncc(Cl)s1` [Example 312, 5-chloro-N-((1S,3R)-3-(2-(cyclopropylmethyl)-6-(1H-1,2,4-triazol-3-yl)-1H-imidazo[4,5-c]pyridin-1-yl)cyclohexyl)thiazole-2-carboxamide]: the IC50 against BCAT2 [1] is at most 100 nM; against hBCAT1, under 500 nM; on BCAT2 [2], at most 100 nM.

For `CC(=O)N1CC(NC(=O)c2ncc(C(F)F)s2)CC(n2c(-c3ccccn3)nc3cnc(-n4nccn4)cc32)C1` (stereo not drawn) [Example 121, N-(1-acetyl-5-(2-(pyridin-2-yl)-6-(2H-1,2,3-triazol-2-yl)-1H-imidazo[4,5-c]pyridin-1-yl)piperidin-3-yl)-5-(difluoromethyl)thiazole-2-carboxamide], the figures for the IC50 on BCAT2 [1], at hBCAT1 and at BCAT2 [2] were at most 100 nM, 500 to 1000 nM and 100 to 500 nM, respectively.

Regarding `CNc1cc2c(cn1)nc(-c1ccccc1F)n2[C@@H]1C[C@@H](O)C[C@H](NC(=O)c2ncc(Cl)s2)C1` [Example 274, 5-chloro-N-((1R,3S,5S)-3-(2-(2-fluorophenyl)-6-(methylamino)-1H-imidazo[4,5-c]pyridin-1-yl)-5-hydroxycyclohexyl)thiazole-2-carboxamide], the IC50 on BCAT2 [1] is at most 100 nM; against hBCAT1 it was under 500 nM; on BCAT2 [2], 500 to 1000 nM.

Regarding `O=C(N[C@H]1CCC[C@@H](n2c(-c3ccccc3F)nc3cc(-n4nccn4)ncc32)C1)c1ncc(C(F)F)s1` [Example 148, 5-(difluoromethyl)-N-((1S,3R)-3-(2-(2-fluorophenyl)-6-(2H-1,2,3-triazol-2-yl)-3H-imidazo[4,5-c]pyridin-3-yl)cyclohexyl)thiazole-2-carboxamide], the figures for the IC50 on BCAT2 [1], against hBCAT1 and at BCAT2 [2] were at most 100 nM, over 5000 nM and over 1000 nM, respectively.

`O=C(N[C@H]1CCC[C@@H](n2c(-c3ccccc3F)nc3cnc(-n4nccn4)cc32)C1)c1ccc(Br)s1` [Example 15, 5-bromo-N-((1S,3R)-3-(2-(2-fluorophenyl)-6-(2H-1,2,3-triazol-2-yl)-1H-imidazo[4,5-c]pyridin-1-yl)cyclohexyl)thiophene-2-carboxamide]: the results for the IC50 against BCAT2 [1], against hBCAT1 and against BCAT2 [2] were at most 100 nM, under 500 nM and at most 100 nM, respectively.

Consider `COc1ccc(F)c(-c2nc3cnc(-c4nc[nH]n4)cc3n2[C@@H]2CCC[C@H](NC(=O)c3ccc(Cl)s3)C2)c1` [Example 343, 5-chloro-N-((1S,3R)-3-(2-(2-fluoro-5-methoxyphenyl)-6-(1H-1,2,4-triazol-3-yl)-1H-imidazo[4,5-c]pyridin-1-yl)cyclohexyl)thiophene-2-carboxamide], for which the IC50 is at most 100 nM on BCAT2 [1], 1000 to 5000 nM against hBCAT1 and 100 to 500 nM against BCAT2 [2].

As for `O=C(NC1COCC(n2c(-c3ccccc3F)nc3cnc(-n4nccn4)cc32)C1)c1ncc(C(F)F)s1` (single isomer, unassigned) [Example 142, 5-(difluoromethyl)-N-(5-(2-(2-fluorophenyl)-6-(2H-1,2,3-triazol-2-yl)-1H-imidazo[4,5-c]pyridin-1-yl)tetrahydro-2H-pyran-3-yl)thiazole-2-carboxamide], the IC50 against BCAT2 [1] is at most 100 nM; against hBCAT1 it was under 500 nM; on BCAT2 [2], at most 100 nM.

As to `Cn1cc(-c2nc3cnc(-n4nccn4)cc3n2[C@@H]2CCC[C@H](NC(=O)c3ncc(C(F)F)s3)C2)cn1` [Example 45, 5-(difluoromethyl)-N-((1S,3R)-3-(2-(1-methyl-1H-pyrazol-4-yl)-6-(2H-1,2,3-triazol-2-yl)-1H-imidazo[4,5-c]pyridin-1-yl)cyclohexyl)thiazole-2-carboxamide], the IC50 is over 1000 nM at BCAT2 [1] and over 5000 nM against hBCAT1. Moreover, the “BCAT2 Cell Inhibition” value on BCAT2 [2] was “E”.

In the case of `NCc1ccccc1-c1nc2cnc(-c3nc[nH]n3)cc2n1[C@@H]1CCC[C@H](NC(=O)c2ncc(Cl)s2)C1` [Example 366, N-((1S,3R)-3-(2-(2-(aminomethyl)phenyl)-6-(1H-1,2,4-triazol-3-yl)-1H-imidazo[4,5-c]pyridin-1-yl)cyclohexyl)-5-chlorothiazole-2-carboxamide], the IC50 is at most 100 nM against BCAT2 [1], 500 to 1000 nM at hBCAT1 and over 1000 nM on BCAT2 [2].

On to `O=C(N[C@H]1CCC[C@@H](n2c(-c3ccccc3F)nc3cnc(N4CCCC4CO)cc32)C1)c1ncc(Cl)s1` (stereo partly drawn) [Example 196, 5-chloro-N-((1S,3R)-3-(2-(2-fluorophenyl)-6-(2-(hydroxymethyl)pyrrolidin-1-yl)-1H-imidazo[4,5-c]pyridin-1-yl)cyclohexyl)thiazole-2-carboxamide], for which the IC50 is at most 100 nM at BCAT2 [1], under 500 nM at hBCAT1 and at most 100 nM on BCAT2 [2].

Regarding `Cc1cnn(-c2cc3c(cn2)nc(-c2ccccn2)n3[C@@H]2CCC[C@H](NC(=O)c3ccc(Br)s3)C2)n1` [Example 39, 5-bromo-N-((1S,3R)-3-(6-(4-methyl-2H-1,2,3-triazol-2-yl)-2-(pyridin-2-yl)-1H-imidazo[4,5-c]pyridin-1-yl)cyclohexyl)thiophene-2-carboxamide], the IC50 against BCAT2 [1] is at most 100 nM; against hBCAT1, under 500 nM; on BCAT2 [2], at most 100 nM.

As for `CO[C@@H]1C[C@@H](NC(=O)c2ncc(Cl)s2)C[C@@H](n2c(-c3ccccc3F)nc3cnc(-n4nccn4)cc32)C1` (stereo in doubt) [Example 424, 5-chloro-N-((1S,3R,5R)-3-(2-(2-fluorophenyl)-6-(2H-1,2,3-triazol-2-yl)-1H-imidazo[4,5-c]pyridin-1-yl)-5-methoxycyclohexyl)thiazole-2-carboxamide], the IC50 against BCAT2 [1] is at most 100 nM; at hBCAT1 it was under 500 nM; on BCAT2 [2], at most 100 nM.
